{
  "source": "patent US20250249001A1",
  "about": "“METHODS OF TREATING SUBSTANCE USE DISORDER WITH 4-(3-CYANOPHENYL)-6-PYRIDINYLPYRIMIDINE MGLU5 NEGATIVE ALLOSTERIC MODULATORS” (Tempero Bio, Inc., priority 2022, published 2025)",
  "key": {"[1]": {"system": "Wistar rats, open-field locomotor activity", "test": "Open-field locomotor test for nonspecific behavioral effects", "type": "in vivo", "settings": "3 mg/kg i.p., 1-hr pretreatment", "description": "Locomotor activity: testing for nonspecific behavioral effects. After completion of the Compound 1 dose response curve, potential nonspecific effects of Compound 1 (3 mg/kg) were assessed using the open-field locomotor test. This test evaluates potential effects on motor activity and anxiety-like behavior. Rats were administered Compound 1 (0 or 3 mg/kg, i.p.) in a randomized counterbalanced order. After a 1-hr pretreatment period (matching the pretreatment period used in the drinking study), rats were placed in the open-field apparatus and locomotor activity was computer-monitored for 1-hr. To assess anxiety-like behavior, activity in the center zone of the open field was analyzed.\nOpen-field locomotor test for nonspecific behavioral effects. Pharmacological manipulations have the potential to alter rodent behavior by producing nonspecific effects on motor ability, learning and memory, or emotional processing. The open field test is a widely used method for assessing all these potential nonspecific effects in a single test. In this method, rodents are injected with a test compound and placed in an open-field apparatus that records ambulatory behavior in real time via computer analysis of photobeam breaks (FIG. 3A). […] Similarly, Compound 1 (3 mg/kg) had no effect on summary measures of total ambulatory distance (FIG. 3C) or total ambulatory time (FIG. 3D) as compared to vehicle control."}, "[2]": {"system": "operant alcohol self-administration in Wistar rats", "test": "Operant alcohol self-administration (FR-1), acute treatment", "type": "in vivo", "design": "alcohol reinforced lever press responses: dose or concentration left out as unconfirmed", "settings": "1-h pretreatment", "source_text": "Twelve operant conditioning chambers designed for rats (30.5 cm×24.1 cm×21.0 cm; Med Associates, Georgia, VT) were located within sound-attenuating cubicles in a devoted room to limit extraneous potential impact by extraneous environmental variables. Each cubicle was equipped with an exhaust fan that provided ventilation and masked external sounds. The chambers were electronically interfaced to a Microsoft Windows based computer that was programmed using investigator developed software to control sessions and record number of lever press responses at 100-ms intervals.\nThe right wall of each chamber contained a liquid receptacle and a response lever (Med Associates) that was termed the active lever. Lever press responses on the active lever activated a syringe pump (PHM-100, Med Associates) that delivered 0.1 ml of alcohol solution (ethanol 8% v/v+sucrose 2% w/v) into the receptacle over a 1.66-s period. Head entries into the liquid receptacle were recorded when an infrared photo beam was broken. A stimulus light located above the response lever was illuminated during pump activation. Lever presses during reinforcer delivery were recorded but produced no programmed consequence. […] Behavior on this lever serves as a control for motor disruptions and other nonspecific effects of test compounds. […]\nTesting the efficacy of Compound 1 to reduce the reinforcing, or rewarding, effects of alcohol. Following establishment of stable baseline self-administration behavior, effects of pre-session treatment with the novel mGluR5 negative allosteric modulator Compound 1 (0, 0.3, 1, 3, and 10 mg/kg, IP) were evaluated on operant alcohol self-administration behavior (n=12 rats). […] Parameters of operant performance were measured, including total lever press responses, number of headpokes into the liquid receptacle, and rate of operant responding, which is a direct measure of positive reinforcement function. […]"}, "mGluR5": {"system": "mGluR5", "settings": "cited from earlier work"}},
  "data": [
    {"smiles": "N#Cc1cc(Cl)cc(-c2cc(-c3ccc(F)cn3)ncn2)c1", "note": "[Compound 1, 3-chloro-5-[6-(5-fluoropyridin-2-yl)pyrimidin-4-yl]benzonitrile]", "values": [
      {"measurement": "motor activity in the center zone of the open field (anxiety-like behavior)", "setting": "[1]", "value": "normal avoidance of the center zone"},
      {"measurement": "total ambulatory distance", "setting": "[1]", "value": "no effect"},
      {"measurement": "total ambulatory time", "setting": "[1]", "value": "no effect"},
      {"measurement": "initial exploration or habituation to the novel open-field environment", "setting": "[1]; 1-hr test", "value": "no effect"},
      {"measurement": "EtOH reinforced responses vs vehicle, multiple comparisons", "setting": "[2]; 10 mg/kg IP", "value": "reduced EtOH reinforced responses"},
      {"measurement": "alcohol reinforced lever press responses", "setting": "[2]; IP (so in the source), 15-min test sessions", "value": "reduced alcohol reinforced lever press responses in a dose-dependent manner"},
      {"measurement": "affinity for mGluR5", "setting": "mGluR5; following systemic administration in rats, mice, and primates", "value": "high affinity"},
      {"measurement": "brain penetration", "setting": "mGluR5; systemic administration", "value": "brain penetrant"}
    ]}
  ]
}
